Laboratory results taken from patent publication US20220026411A1, “ANALYTICAL METHODS AND ARRAYS FOR USE IN THE SAME” (SENZAGEN AB, priority 2019, published 2022).

system: not given; experiment: not given; details: training data set; as defined by available literature and expert consensus; cited from earlier work

SMILES	Function in study
CCCCCCC(C=O)=Cc1ccccc1 [hexylcinnamic aldehyde]	SS/NRS
Nc1ccccc1O [2-aminophenol]	SS/NRS
[K+].[K+].[O]=[Cr](=[O])([O-])[O][Cr](=[O])(=[O])[O-] [potassium dichromate]	SS/NRS
CC1(C)S[C@@H]2[C@H](NC(=O)Cc3ccccc3)C(=O)N2[C@H]1C(=O)O [penicillin G]	SS/NRS

same assay, conditions: true group belonging of external test chemicals; cited from earlier work

SMILES	True group
C=CCc1ccc(O)c(OC)c1 [Eugenol]	NRS
CCCCCCCC(=O)O [Octanoic acid]	NRS
C[S+](C)[O-] [DMSO]	NRS
OCC=Cc1ccccc1 [Cinnamyl alcohol]	NRS
O=[N+]([O-])c1ccc(Cl)c([N+](=O)[O-])c1 [DNCB]	NRS
CCOC(=O)c1ccccc1C(=O)OCC [Diethyl phthalate]	NRS
CC=Cc1ccc(O)c(OC)c1 [Isoeugenol]	NRS
Sc1nc2ccccc2s1 [2-Mercaptobenzothiazole]	NRS
O=C(O)c1ccccc1O [Salicylic acid]	NRS
Nc1ccc(N)cc1 [PPD]	NRS
O=C(O)c1ccc(O)cc1 [4-Hydroxybenzoic acid]	NRS
CCCCCCCCCCCCOS(=O)(=O)[O-].[Na+] [SDS]	NRS

system: SenzaCell; experiment: not given; details: not given

SMILES	Prediction Test set 1
Oc1ccccc1 [Phenol]	NRS

system: SenzaCell; experiment: GARDair assay: gene expression signature (GRPS, 28 genes) of chemically exposed DC-like cells, SVM classification; details: finalized GARDair prediction model; RS if mean SVM decision value (n=3) > 0; 24 h exposure at GARD input concentration
Protocol: All exposures were performed in repeated triplicate experiments in a controlled setting, thus generating a coherent dataset with high statistical power optimized for subsequent biomarker discovery.
A prediction model was trained and frozen, based on a Support Vector Machine (SVM), using the samples of the training data set with a binary “function in study” (respiratory sensitizer/non-respiratory sensitizer) as the dependent variable, and the gene expression values of the GRPS as the independent variables (i.e. predictors), see also Table 4.
Having established an optimized prediction model and associated protocols, the assay was challenged with two sets of external samples, referred to as test data sets.
The human myeloid leukemia-derived cell line SenzaCell (available through ATCC), acting as an in vitro model of human Dendritic Cell (DC), is maintained in a-MEM (Thermo Scientific Hyclone, Logan, Utah) supplemented with 20% (volume/volume) fetal calf serum (Life Technologies, Carlsbad, Calif.) and 40 ng/ml recombinant human Granulocyte Macrophage Colony Stimulating Factor (rhGM-CSF) (Miltenyi Biotec, Germany). A media change during expansion is performed every 3-4 days. Working stocks of cultures are grown for a maximum of 16 passages or two months after thawing. For chemical stimulation of cells, exposed cells are incubated for 24 h at 37° C., 5% CO2 and 95% humidity.
Some Test Substances were poorly dissolved in cell media; therefore, the maximum soluble concentration was assessed as well. The Test Substance that was to be tested was titrated to concentrations ranging from 1 μM to the maximum soluble concentration in cell media. For freely soluble Test Substances, 500 μM was set as the upper limit of the titration range. For Test Substances dissolved in DMSO, the in-well concentration of DMSO was 0.1%. After incubation for 24 h at 37° C., 5% CO2 and 95% humidity, harvested cells were stained with the viability marker Propidium Iodide (PI) (BD Bioscience, USA) and analyzed by flow cytometry. PI-negative cells were defined as viable, and the relative viability of cells stimulated with each concentration in the titration range was calculated as
For non-toxic Test Substances, a concentration of 500 μM was used if possible. For non-toxic Test Substances that were insoluble at 500 μM in cell media, the highest soluble concentration was used. Whichever of these three criteria was met, only one concentration will be used for gene expression analysis. The concentration to be used for any given chemical was termed the ‘GARD input concentration’.
Once the GARD input concentration for Test Substances to be assayed was established, the cells were stimulated again as described above, this time only using the GARD input concentration. All assessments of Test Substances and Benchmark Controls were assayed in biological triplicates, performed at different time-points and using different cell cultures. After incubation for 24 h at 37° C., 5% CO2 and 95% humidity, cell culture was lysed in TRlzol reagent (Life Technologies) and stored at −20° C. until RNA was extracted. In parallel, a small sample of stimulated cells was taken for PI staining and analysis with flow cytometry, to ensure the expected relative viability of stimulated cells was reached.

SMILES	Prediction Test set 1	Prediction Test set 2
C=CCc1ccc(O)c(OC)c1 [Eugenol]	NRS	
CCCCCCCC(=O)O [Octanoic acid]	NRS	
C[S+](C)[O-] [DMSO]		NRS
OCC=Cc1ccccc1 [Cinnamyl alcohol]	NRS	
O=[N+]([O-])c1ccc(Cl)c([N+](=O)[O-])c1 [DNCB]	NRS	NRS
CCOC(=O)c1ccccc1C(=O)OCC [Diethyl phthalate]	NRS	
CC=Cc1ccc(O)c(OC)c1 [Isoeugenol]	NRS	
Clc1ccccc1 [chlorobenzene]		NRS
Oc1cccc(O)c1 [Resorcinol]	NRS	
O=Cc1ccccc1 [Benzaldehyde]	NRS	
Nc1ccc(N)cc1 [PPD]	NRS	NRS
O=C(O)c1ccc(O)cc1 [4-Hydroxybenzoic acid]	NRS	
OCC(O)CO [Glycerol]	NRS	
CCCCCCCCCCCCOS(=O)(=O)[O-].[Na+] [SDS]	NRS	
